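Interpolation was linear, between the two tested concentrations surrounding the appropriate level; five concentrations were tested over 48 hours in 96-well plates. TGI denotes the concentration required for complete inhibition of growth.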
Legend:
Test in all cases: inhibition of tumour cell growth, NCI panel, 48 h
786-0 renal = tested on: 786-0 renal
A498 renal = tested on: A498 renal
A549 NSCLC = tested on: A549 NSCLC
ACHN renal = tested on: ACHN renal
BT-549 breast = tested on: BT-549 breast
CAKI-1 renal = tested on: CAKI-1 renal
CCRF-CEM leukemia = tested on: CCRF-CEM leukemia
COLO 205 colon = tested on: COLO 205 colon
DU-145 prostate = tested on: DU-145 prostate
EKVX NSCLC = tested on: EKVX NSCLC
HCC-2998 colon = tested on: HCC-2998 colon
HCT-116 colon = tested on: HCT-116 colon
HCT-15 colon = tested on: HCT-15 colon
HL-60(TB) leukemia = tested on: HL-60(TB) leukemia
HOP-92 NSCLC = tested on: HOP-92 NSCLC
HT29 colon = tested on: HT29 colon
IGROV1 ovarian = tested on: IGROV1 ovarian
K-562 leukemia = tested on: K-562 leukemia
LOX IMVI melanoma = tested on: LOX IMVI melanoma
M14 melanoma = tested on: M14 melanoma
MALME-3M melanoma = tested on: MALME-3M melanoma
MCF7 breast = tested on: MCF7 breast
MDA-MB-231 breast = tested on: MDA-MB-231 breast
MDA-MB-435 = tested on: MDA-MB-435
MDA-N = tested on: MDA-N
MOLT-4 leukemia = tested on: MOLT-4 leukemia
NCI-H226 lung = tested on: NCI-H226 lung
NCI-H23 lung = tested on: NCI-H23 lung
NCI-H460 lung = tested on: NCI-H460 lung
NCI-H522 lung = tested on: NCI-H522 lung
NCI/ADR-RES ovarian = tested on: NCI/ADR-RES ovarian
OVCAR-4 ovarian = tested on: OVCAR-4 ovarian
OVCAR-5 ovarian = tested on: OVCAR-5 ovarian
OVCAR-8 ovarian = tested on: OVCAR-8 ovarian
PC-3 prostate = tested on: PC-3 prostate
SF-295 CNS = tested on: SF-295 CNS
SF-539 CNS = tested on: SF-539 CNS
SK-MEL-2 melanoma = tested on: SK-MEL-2 melanoma
SK-MEL-28 melanoma = tested on: SK-MEL-28 melanoma
SK-MEL-5 melanoma = tested on: SK-MEL-5 melanoma
SK-OV-3 ovarian = tested on: SK-OV-3 ovarian
SN12C renal = tested on: SN12C renal
SNB-19 CNS = tested on: SNB-19 CNS
SR leukemia = tested on: SR leukemia
SW-620 colon = tested on: SW-620 colon
T-47D breast = tested on: T-47D breast
TK-10 renal = tested on: TK-10 renal
U251 CNS = tested on: U251 CNS
UACC-257 melanoma = tested on: UACC-257 melanoma
UACC-62 melanoma = tested on: UACC-62 melanoma
UO-31 renal = tested on: UO-31 renal
HOP-62 NSCLC = tested on: HOP-62 NSCLC
HS 578T breast = tested on: HS 578T breast
KM12 colon = tested on: KM12 colon
OVCAR-3 ovarian = tested on: OVCAR-3 ovarian
RPMI-8226 leukemia = tested on: RPMI-8226 leukemia
RXF 393 renal = tested on: RXF 393 renal

Measured: TGI

NC(=O)CC1OC(=O)Cc2cc3c(c(O)c21)C(=O)c1c(O)cccc1C3=O (stereo not drawn)
not listed: HOP-62 NSCLC | HS 578T breast | KM12 colon | OVCAR-3 ovarian | RPMI-8226 leukemia | RXF 393 renal
> 100 µM: all other assays above

COc1ccc2[nH]cc(CCNC(=O)[C@H](Cc3ccc(O)cc3)NC(=O)[C@@H](NCC(F)(F)F)C(C)C)c2c1
83.3 µM: MDA-MB-435
91.1 µM: HS 578T breast
57.4 µM: OVCAR-3 ovarian
not listed: A498 renal | CAKI-1 renal | HCC-2998 colon | SK-MEL-5 melanoma | T-47D breast
> 100 µM: all other assays above

From PubChem BioAssay (NCI)
